Experiments:
1799 cells = assay: Immunoblot of apoptosis-related enzymes and Bcl family members; type: cell-based, human; conditions: 3 days
Experimental: (§1) Whole cell lysates from 1×10^6 cells were prepared in lysis buffer as described (Lonardo et al., 2002). Equivalent amounts of protein were resolved by sodium dodecyl sulfate (SDS)-polyacrylamide gels (7.5%-12%) and transferred to a nitrocellulose membrane. After the membrane was blocked in Tris-buffered saline (TBS) containing 0.05% Tween 20 (TBST) and 5% (w/v) nonfat powdered milk, the membrane was incubated with primary antibody at the appropriate dilution in TBS-5% nonfat milk at 4° C. for 16 h. The membrane was then washed multiple times with TBST and incubated with the appropriate horseradish peroxidaseconjugated secondary antibody for 1 h at room temperature. The protein-antibody complexes were detected by enhanced chemilurminescence (ECL kit; Amersham, Arlington Heights, Ill.), according to the manufacturer's recommended protocol.
The following antibodies and working dilutions were used for the Western blots: rabbit polyclonal antibodies against human phosphorylated Akt (pAkt) (Ser473) (1:1000), Akt (1:1000), phosphorylated glycogen synthase kinase 3β (pGSK-3β) (Ser9) (1:1000), and mouse monoclonal antibody against human antiphosphorylated MAPK (anti-pMAPK) (Thr202/Tyr204) (1:500) (Cell Signaling Technology, Beverly, Mass.); rabbit polyclonal anti-GSK-3α/β (1:1000) (BD Transduction Laboratories, Lexington, Ky.); rabbit polyclonal anti-Bax and anti-caspase-3 antibodies (1:2000) (Pharmingen, San Diego, Calif.); rabbit polyclonal anti-Bcl-2 (1:1000) and rabbit polyclonal antipoly(ADP-ribose) polymerase (PARP) antibody (1:1000) (VIC5; Roche Molecular Biochemicals, Indianapolis, Ind.); rabbit polyclonal anti-hemagglutinin (HA) antibody (1:1000), goat polyclonal antibodies against extracellular related kinase 1(Erk-1; 1:1000), Erk-2 (1:1000), and β-actin (1:4000) (Santa Cruz Biotechnology, Inc., Santa Cruz, Calif.); rabbit anti-mouse immunoglobulin G (IgG)-horseradish peroxidase conjugate (1:2000) (DAKO, Carpinteria, Calif.); and donkey anti-rabbit IgG-horseradish peroxidase conjugate (1:2000) and rabbit anti-goat IgG-horseradish peroxidase conjugate (1:2000) (Amersham Pharmacia Biotech, Arlington Heights, Ill.).

NHBE cells = assay: MTT proliferation assay, NHBE cells (deguelin); type: cell-based, human; conditions: 10^−9 M to 10^−7 M
Experimental: (§2) To measure the effects of deguelin on cell proliferation, NHBE, 1799, 1198, 1170-1, and HB56B cells were plated at concentrations of 2×10^3 to 4×10^3 cells/well in 96-well plates. The next day, cells were treated with either 0.1% DMSO as a diluent control or various concentrations of deguelin (final DMSO concentration=0.1%). At the end of the assay time period, cell proliferation was measured by the 3-(4,5-dimethylthiazol-2-yl)-2,5-diphenyltetrazolium bromide (MTT) assay as described (Lee et al., 2002). Six replicate wells were used for each analysis, and data from replicate wells are presented as means with 95% confidence intervals (CIs). For some experiments, the drug concentration required to inhibit cell growth by 50% (IC50) was determined by interpolation from dose-response curves. At least three independent experiments were performed.

ERK1/2 in 1799 cells = assay: Immune complex kinase assay for ERK1/2; type: cell-based, human; conditions: 10^−7 M, 0-24 h, then 50 ng/mL IGF-I for 15 min
Experimental: (§3) Approximately 5×10^6 1799 cells were treated with 10^−7 M deguelin or 0.1% DMSO for various time periods in the absence of any additional stimulatory growth factors. The cells were then treated with 50 ng/mL IGF-I for 15 minutes to activate MAPK. Total cell extracts were prepared in lysis buffer (Lonardo et al. 2002), and ERK-1/2 or c-Jun N-terminal kinase (JNK) were immunoprecipitated from 100 μg of each cell extract using antibodies (1 μg) that recognize ERK1/2 or JNK (Santa Cruz Biotechnology) and protein-A sepharose beads (20 μL) (Amersham Pharmacia Biotech). Kinase assays were performed by incubating the beads with 30 μL of kinase buffer to which 5 μCi of [γ^32P]ATP (2000 cpm/pmol) and 1 μg of substrate (myelin basic protein [MBP; Calbiochem, La Jolla, Calif.] or GST-cJun [Santa Cruz Biotechnology]) were added, as previously described (Lee et al., 2002). The samples were suspended in Laemmli buffer, boiled for 5 min, and then analyzed by SDS-polyacrylamide gel clectrophoresis. The gel was dried and autoradiographed. Total cell lysates from Jurkat cells (Upstate Biotechnology, Inc.) and H1299 NSCLC treated with 50 ng/mL IGF-I for 15 min were used as positive controls. Changes in the level of phosphorylation in MBP or GST-cJun reflect changes in Erk1/2 and JNK activity, respectively.

[1] = test system: premalignant and malignant HBE cell lines; assay: MTT proliferation assay, premalignant and malignant HBE cell lines; type: cell-based; conditions: Homo sapiens, range tested 10^−9 M to 10^−7 M, read-out: IC50 (growth inhibition)
Experimental: as §2

squamous HBE cells [2] = assay: Immunoblot of pAkt, pGSK-3β, caspase-3 and PARP, squamous HBE cells; type: cell-based, human
Experimental: as §1
To determine whether deguelin-induced antiproliferative effects on premalignant HBE cells were mediated through the inhibition of the PI3K/Akt pathway, 2×10^5 1799 cells/well or 1×10 ^6 squamous HBE cells/well in six-well plates were infected with 5×10 ^3 particles/cell of a control virus (Ad5CMV) or with 1×10^3 or 5×10^3 particles/cell of Ad5CMV-MyrAkt-HA, an adenoviral vector that expresses a constitutively active Akt. […] Apoptosis was analyzed using the APO-BrdU staining kit for TUNEL, Western blot analyses for caspase-3, and the cleavage of PARP.

JNK in 1799 cells = assay: Immune complex kinase assay for JNK; type: cell-based, human; conditions: 10^−7 M
Experimental: as §3

[3] = test system: PI3K/Akt pathway in 1799 cells; assay: Immunoblot of pAkt and pGSK-3β, 1799 cells; type: cell-based, human; conditions: 10^−7 M
Experimental: as §1, with “protocol. […]” for “protocol.”

squamous HBE cells [4] = assay: MTT proliferation assay, squamous HBE cells; type: cell-based, human; conditions: 1 day

COc1cc2c(cc1OC)[C@@H]1C(=O)c3ccc4c(c3O[C@@H]1CO2)C=CC(C)(C)O4 [deguelin, Deguelin]
caspase-3 activation (1799 cells; 10^−8 M or 10^−7 M): activated caspase-3 | Bax level (1799 cells): dose dependent increase in the level of Bax | Bcl-2 expression (1799 cells): slight decrease in Bcl-2 expression | Bcl-xL level (1799 cells): did not affect the level of Bcl-xL | effect on growth of NHBE cells (NHBE cells): minimal effect | ERK1/2 activity (ERK1/2 in 1799 cells): no discernible effect | IC50 [1]: < 10 nM | levels of pAkt and pGSK-3β (squamous HBE cells [2]): decreased the levels of pAkt and pGSK-3β in a time-dependent manner | PARP cleavage (squamous HBE cells [2]; 10^−9 M to 10^−7 M, 1 day): increased PARP cleavage | JNK activity (JNK in 1799 cells): not affected | levels of pAkt and pGSK-3β ([3]; 0-24 h): time-dependent decrease in the levels of pAkt and pGSK-3β | pAkt level ([3]; by 14 h): virtually undetectable | proliferation of control squamous HBE cells (squamous HBE cells [4]; 10^−7 M or 10^−6 M): decreased proliferation of control squamous HBE cells in a dose-dependent manner | growth as percent of untreated cells (squamous HBE cells [4]; squamous HBE cells overexpressing constitutively active Akt, 10^−7 M to 10^−6 M): approximately 95%

Source: patent US20040005294A1, “IGFBP-3 in the diagnosis and treatment of cancer” (priority 2002, published 2004)
